According to patent US20250282768A1 (Janssen Pharmaceutica NV, priority 2022, published 2025):

system: p-IKKa levels in L363 (NIK translocated multiple myeloma) cells; test: Assay 2: Effect of compounds on p-IKKa levels in L363 (NIK translocated multiple myeloma) cells; format: cell-based; conditions: Homo sapiens, L-363, 6 h, read-out: Assay 2 IC50 (nM), p-IKKa (Ser 176/180) in BAFF stimulated L363 cells with MG132, 6 h; average if tested more than once
Method: Assay 2: Effect of Compounds on p-IKKa Levels in L363 (NIK Translocated Multiple Myeloma) Cells
All compounds tested were dissolved and serially diluted in DMSO, 1:3 dilution for 11 points in an Echo compatible plate. 100% DMSO was added to columns 12 and 24 of the plate to serve as high and low signal controls. This compound plate was used to spot 20 nL of compound or DMSO into a Greiner 384 well TC plate (781080). The final DMSO concentration was 0.3% (v/v) in cell assays. Human L363 cells (ATCC) were cultured in RPM11640 medium supplemented with GlutaMax, non-essential amino acids, sodium pyruvate and 10% fetal bovine serum. Cells were routinely maintained at densities of 0.2×10^6 cells per ml—2×10^6 cells per mL at 37° C. in a humidified 5% CO2 atmosphere incubator. Cells were passaged twice a week splitting back to obtain the low density. The day before the assay, cells were washed twice in HBSS (Hank's Balanced Salt Solution), resuspended in Dulbecco's Modified Eagle Medium (DMEM)+0.5% IgG and protease free BSA (Jackson Immuno Research Laboratories), +/−250 ng/ml recombinant human B-cell activating factor (BAFF/BLyS/TNFSF13B) and incubated overnight at 37° C. in a humidified 5% CO2 atmosphere (bulk stimulation with or without BAFF). The next day, the cell concentration was adjusted to 1×10^7 cells/ml in DMEM+/−250 ng/ml BAFF +/−10 μM MG132 and plated at 10 μl/well into compound or DMSO spotted 384 well TC plates. Seeded cells were incubated at 37° C. in a humidified 5% CO2 atmosphere for 6 h. After 6 h, the plates were removed from the incubator and cell lysis was achieved by the addition of 2.5 μl 5×lysis buffer containing protease and phosphatase inhibitors, followed by shaking on a plate shaker at room temperature for 15 min. At the end of this incubation, lysed cells were sequentially treated and incubated with acceptor and donor bead mixes according to the manufacturer's protocol for a 1 plate/2-incubation suspension cell assay (AlphaLISA SureFire Ultra p-IKKa (Ser 176/180) Assay Kit (Perkin Elmer). Plates were read using an EnVision Multilabel Plate Reader (Perkin Elmer). Within an experiment, a concentration response curve for each compound was run in duplicate. The signal obtained in the test wells was normalized using high signal (BAFF stimulated cells, DMSO, MG132) and low signal (unstimulated cells, DMSO) controls. To determine the IC50, a sigmoidal curve was fitted to the plot of % inhibition versus Log10 compound concentration.

First: CN1CC[C@@H](n2cc(Nc3nccc(-c4cccc(-c5cc([C@]6(O)CCN(C)C6=O)on5)n4)n3)cn2)[C@H](F)C1 (single isomer, unassigned) [Example 202]
Second: CN1CC[C@H](n2cc(Nc3nccc(-c4cccc(-c5cc([C@]6(O)CCN(C)C6=O)on5)n4)n3)cn2)C1 (single isomer, unassigned) [Example 203, (R)-3-Hydroxy-1-methyl-3-(3-(6-(2-((1-((*S)-1-methylpyrrolidin-3-yl)-1H-pyrazol-4-yl)amino)pyrimidin-4-yl)pyridin-2-yl)isoxazol-5-yl)pyrrolidin-2-one]
The IC50 of the first is lower: less than 50 nM for the first, 50 to 500 nM for the second.

CN1CC[C@@](O)(c2cc(-c3cccc(-c4ccnc(N[C@@H]5CCCC[C@@H]5O)n4)n3)no2)C1=O (single isomer, unassigned) [Example 336] and CN1CC[C@@](O)(c2cc(-c3cccc(-c4ccnc(N[C@H]5CCCC[C@H]5O)n4)n3)no2)C1=O (single isomer, unassigned) [Example 337] cannot be ordered by IC50: greater than 500 nM for the first, greater than 500 nM for the second.

C[C@H]1OCC[C@@H]1Nc1nccc(-c2cccc(-c3cc([C@]4(O)CCN(C)C4=O)on3)n2)n1 (single isomer, unassigned) [Example 346] and C[C@@H]1OCC[C@@H]1Nc1nccc(-c2cccc(-c3cc([C@]4(O)CCN(C)C4=O)on3)n2)n1 (single isomer, unassigned) [Example 347] fall in the same range of IC50: 50 to 500 nM for the first, 50 to 500 nM for the second.

First: C[C@H](Nc1nccc(-c2cccc(-c3cc([C@]4(O)CCN(C)C4=O)no3)n2)n1)c1cnn(C)c1 (single isomer, unassigned) [Example 400]
Second: C[C@@H](Nc1nccc(-c2cccc(-c3cc([C@]4(O)CCN(C)C4=O)no3)n2)n1)c1cnn(C)c1 (single isomer, unassigned) [Example 401]
The IC50 of the first is higher: greater than 500 nM for the first, less than 50 nM for the second. The second is the more potent here.

First: C[C@@H](Nc1nccc(-c2cccc(-c3cc([C@]4(O)CCN(C)C4=O)on3)n2)n1)c1ccn(C)n1 (single isomer, unassigned) [Example 404, (R)-3-Hydroxy-1-methyl-3-(3-(6-(2-(((*R)-1-(1-methyl-1H-pyrazol-3-yl)ethyl)amino)pyrimidin-4-yl)pyridin-2-yl)isoxazol-5-yl)pyrrolidin-2-one]
Second: C[C@H](Nc1nccc(-c2cccc(-c3cc([C@]4(O)CCN(C)C4=O)on3)n2)n1)c1ccn(C)n1 (single isomer, unassigned) [Example 405, (R)-3-hydroxy-1-methyl-3-(3-(6-(2-(((*S)-1-(1-methyl-1H-pyrazol-3-yl)ethyl)amino)pyrimidin-4-yl)pyridin-2-yl)isoxazol-5-yl)pyrrolidin-2-one]
The IC50 of the first is higher: greater than 500 nM for the first, 50 to 500 nM for the second. The second is the more potent here.

First: CN1CC[C@@](O)(c2cnn(-c3cccc(-c4ccnc(Nc5cnn(C)c5Cl)n4)n3)c2)C1=O (single isomer, unassigned) [Example 411, (*R)-3-(1-(6-(2-((5-Chloro-1-methyl-1H-pyrazol-4-yl)amino)pyrimidin-4-yl)pyridin-2-yl)-1H-pyrazol-4-yl)-3-hydroxy-1-methylpyrrolidin-2-one]
Second: [2H]C1([2H])N(C)C(=O)[C@](O)(c2cc(-c3cccc(-c4ccnc(Nc5cnn(C)c5)n4)n3)no2)C1([2H])[2H] [Example 5, (R)-3-Hydroxy-1-methyl-3-(3-(6-(2-((1-methyl-1H-pyrazol-4-yl)amino)pyrimidin-4-yl)pyridin-2-yl)isoxazol-5-yl)pyrrolidin-2-one-4,4,5,5-d4]
The IC50 of the first is higher: 50 to 500 nM for the first, less than 50 nM for the second. The second is the more potent here.

C[C@@H](CC(F)(F)F)Nc1nccc(-c2cccc(-c3cc([C@]4(O)CCN(C)C4=O)on3)n2)n1 (single isomer, unassigned) [Example 437, (R)-3-Hydroxy-1-methyl-3-(3-(6-(2-(((*S)-4,4,4-trifluorobutan-2-yl)amino)pyrimidin-4-yl)pyridin-2-yl)isoxazol-5-yl)pyrrolidin-2-one] and C[C@H](CC(F)(F)F)Nc1nccc(-c2cccc(-c3cc([C@]4(O)CCN(C)C4=O)on3)n2)n1 (single isomer, unassigned) [Example 438, (R)-3-Hydroxy-1-methyl-3-(3-(6-(2-(((*R)-4,4,4-trifluorobutan-2-yl)amino)pyrimidin-4-yl)pyridin-2-yl)isoxazol-5-yl)pyrrolidin-2-one] fall in the same range of IC50: 50 to 500 nM for the first, 50 to 500 nM for the second.

CN1CC[C@@](O)(c2cc(-c3cccc(-c4ccnc(N[C@H]5CCSC5)n4)n3)no2)C1=O (single isomer, unassigned) [Example 457, (R)-3-Hydroxy-1-methyl-3-(3-(6-(2-(((*S)-tetrahydrothiophen-3-yl)amino)pyrimidin-4-yl)pyridin-2-yl)isoxazol-5-yl)pyrrolidin-2-one] and CN1CC[C@@](O)(c2cc(-c3cccc(-c4ccnc(N[C@@H]5CCSC5)n4)n3)no2)C1=O (single isomer, unassigned) [Example 458, (R)-3-Hydroxy-1-methyl-3-(3-(6-(2-(((*R)-tetrahydrothiophen-3-yl)amino)pyrimidin-4-yl)pyridin-2-yl)isoxazol-5-yl)pyrrolidin-2-one] fall in the same range of IC50: 50 to 500 nM for the first, 50 to 500 nM for the second.

CO[C@H](CNc1nccc(-c2cccc(-c3cc([C@]4(O)CCN(C)C4=O)on3)n2)n1)C(F)(F)F (single isomer, unassigned) [Example 462, (R)-3-Hydroxy-1-methyl-3-(3-(6-(2-(((*R)-3,3,3-trifluoro-2-methoxypropyl)amino)pyrimidin-4-yl)pyridin-2-yl)isoxazol-5-yl)pyrrolidin-2-one] and CO[C@@H](CNc1nccc(-c2cccc(-c3cc([C@]4(O)CCN(C)C4=O)on3)n2)n1)C(F)(F)F (single isomer, unassigned) [Example 463, (R)-3-Hydroxy-1-methyl-3-(3-(6-(2-(((*S)-3,3,3-trifluoro-2-methoxypropyl)amino)pyrimidin-4-yl)pyridin-2-yl)isoxazol-5-yl)pyrrolidin-2-one] fall in the same range of IC50: 50 to 500 nM for the first, 50 to 500 nM for the second.

Going from CO[C@H]1COCC[C@@H]1Nc1nccc(-c2cccc(-c3cc([C@]4(O)CCN(C)C4=O)on3)n2)n1 (stereo in doubt) [Example 355, (R)-3-Hydroxy-3-(3-(6-(2-(((trans)-3-methoxytetrahydro-2H-pyran-4-yl)amino)pyrimidin-4-yl)pyridin-2-yl)isoxazol-5-yl)-1-methylpyrrolidin-2-one] to [2H]C1([2H])N(C)C(=O)[C@](O)(c2cc(-c3cccc(-c4ccnc(Nc5cnn(CC)c5)n4)n3)no2)C1([2H])[2H] [Example 7, (R)-3-(3-(6-(2-((1-Ethyl-1H-pyrazol-4-yl)amino)pyrimidin-4-yl)pyridin-2-yl)isoxazol-5-yl)-3-hydroxy-1-methylpyrrolidin-2-one-4,4,5,5-d4], the IC50 falls from greater than 500 nM to less than 50 nM. The second is the more potent here.

CN1C(=O)[C@](O)(c2cc(-c3cccc(-c4ccnc(Nc5ccn(C)n5)n4)n3)no2)C[C@H]1C(F)(F)F [Example 1, (3R,5S)-3-Hydroxy-1-methyl-3-(3-(6-(2-((1-methyl-1H-pyrazol-3-yl)amino)pyrimidin-4-yl)pyridin-2-yl)isoxazol-5-yl)-5-(trifluoromethyl)pyrrolidin-2-one] and CN1C(=O)[C@](O)(c2cc(-c3cccc(-c4ccnc(Nc5cnn(C)c5)n4)n3)no2)C[C@H]1C(F)(F)F [Example 6, (3R,5S)-3-Hydroxy-1-methyl-3-(3-(6-(2-((1-methyl-1H-pyrazol-4-yl)amino)pyrimidin-4-yl)pyridin-2-yl)isoxazol-5-yl)-5-(trifluoromethyl)pyrrolidin-2-one] fall in the same range of IC50: 50 to 500 nM for the first, 50 to 500 nM for the second.

CN1CC[C@@](O)(c2cc(-c3cc(C(F)(F)F)cc(-c4ccnc(Nc5ccn(C)n5)n4)n3)no2)C1=O [Example 2, (R)-3-Hydroxy-1-methyl-3-(3-(6-(2-((1-methyl-1H-pyrazol-3-yl)amino)pyrimidin-4-yl)-4-(trifluoromethyl)pyridin-2-yl)isoxazol-5-yl)pyrrolidin-2-one] and CN1CC[C@@](O)(c2cc(-c3cc(C(F)(F)F)cc(-c4ccnc(Nc5cnn(C)c5)n4)n3)no2)C1=O [Example 4, (R)-3-Hydroxy-1-methyl-3-(3-(6-(2-((1-methyl-1H-pyrazol-4-yl)amino)pyrimidin-4-yl)-4-(trifluoromethyl)pyridin-2-yl)isoxazol-5-yl)pyrrolidin-2-one] cannot be ordered by IC50: less than 50 nM for the first, less than 50 nM for the second.

CN1CC(F)(F)[C@@](O)(c2cc(-c3cccc(-c4ccnc(Nc5cnn(C)c5)n4)n3)no2)C1=O [Example 3, (R)-4,4-Difluoro-3-hydroxy-1-methyl-3-(3-(6-(2-((1-methyl-1H-pyrazol-4-yl)amino)pyrimidin-4-yl)pyridin-2-yl)isoxazol-5-yl)pyrrolidin-2-one] showed an IC50 of less than 50 nM.
